Measurements: the NIST ThermoML archive (doi:10.1021/je049612f)

Settings: Gas, Vibrating wire viscometry

FS(F)(F)(F)(F)F [sulfur hexafluoride]
Settings	viscosity [mPa·s]
350 K, 269.03 kPa	0.0176
350 K, 295.24 kPa	0.0176
350 K, 332.44 kPa	0.01761
350 K, 363.13 kPa	0.01762
350 K, 390.5 kPa	0.01763
350 K, 418.5 kPa	0.01765
350 K, 450.38 kPa	0.01765
350 K, 485.3 kPa	0.01766
350 K, 522.75 kPa	0.01767
350 K, 552.81 kPa	0.01768
350 K, 579.7 kPa	0.01769
350 K, 619.51 kPa	0.01771
350 K, 654.26 kPa	0.01772
350 K, 701.64 kPa	0.01775
350 K, 739.48 kPa	0.01775
350 K, 779.89 kPa	0.01777
350 K, 809.98 kPa	0.01779
350 K, 855.04 kPa	0.0178
350 K, 900.26 kPa	0.01782
350 K, 954.25 kPa	0.01784
350 K, 997.88 kPa	0.01787
350 K, 1051.5 kPa	0.0179
350 K, 1146.2 kPa	0.01795
350 K, 1196.5 kPa	0.01798
350 K, 1265.4 kPa	0.01803
350 K, 1341.2 kPa	0.01807
350 K, 1392.7 kPa	0.01811
350 K, 1473.1 kPa	0.01816
350 K, 1546.1 kPa	0.01821
350 K, 1621.8 kPa	0.01827
350 K, 1656.3 kPa	0.0183
350 K, 1713.2 kPa	0.01835
350 K, 1840 kPa	0.01844
350 K, 1888.3 kPa	0.01849
350 K, 1964.6 kPa	0.01856
350 K, 2005.9 kPa	0.01861
350 K, 2043.2 kPa	0.01864
350 K, 2108.6 kPa	0.01871
350 K, 2309.3 kPa	0.01893
350 K, 2394 kPa	0.01903
350 K, 2449.2 kPa	0.01908
350 K, 2505.1 kPa	0.01916
350 K, 2608.1 kPa	0.01929
350 K, 2657.7 kPa	0.01936
350 K, 2798.4 kPa	0.01957
350 K, 2900.4 kPa	0.01971
350 K, 2978.2 kPa	0.01986
350 K, 3047.1 kPa	0.01996
350 K, 3125.3 kPa	0.0201
350 K, 3224.5 kPa	0.02028
350 K, 3319.6 kPa	0.02047
350 K, 3405.3 kPa	0.02064
350 K, 3504.4 kPa	0.02085
350 K, 3655.4 kPa	0.02123
350 K, 3748 kPa	0.02146
350 K, 3869.5 kPa	0.02179
350 K, 3987.5 kPa	0.02211
350 K, 4143 kPa	0.02261
350 K, 4307.3 kPa	0.02322
350 K, 4473.2 kPa	0.02386
350 K, 4598.1 kPa	0.02443
350 K, 4732.9 kPa	0.02508
350 K, 4848.3 kPa	0.02571
350 K, 4964.3 kPa	0.02637
350 K, 5096.1 kPa	0.02724
350 K, 5208.7 kPa	0.02806
350 K, 5327.4 kPa	0.02902
350 K, 5431.3 kPa	0.02995
350 K, 5524.2 kPa	0.03078
350 K, 5638.8 kPa	0.03189
350 K, 5741 kPa	0.03299
350 K, 5850 kPa	0.03434
350 K, 5956.2 kPa	0.03561
350 K, 6067.6 kPa	0.03706
350 K, 6177.6 kPa	0.03857
350 K, 6280.8 kPa	0.03995
350 K, 6385.1 kPa	0.04139
350 K, 6510.8 kPa	0.04319
350 K, 6635.4 kPa	0.04497
350 K, 6769.6 kPa	0.04684
350 K, 6918.8 kPa	0.04891
350 K, 7076.5 kPa	0.05108
350 K, 7230 kPa	0.05306
350 K, 7408.1 kPa	0.05532
350 K, 7592 kPa	0.05755
350 K, 7767.3 kPa	0.05957
350 K, 8006.2 kPa	0.06218
350 K, 8297.4 kPa	0.06505
350 K, 8558.7 kPa	0.06754
350 K, 8849.5 kPa	0.07028
350 K, 9294 kPa	0.07399
350 K, 9823.4 kPa	0.07814
350 K, 10614 kPa	0.08354
350 K, 11424 kPa	0.08869
350 K, 12301 kPa	0.09386
375 K, 72.56 kPa	0.01862
375 K, 103.02 kPa	0.01864
375 K, 132.08 kPa	0.01864
375 K, 156.74 kPa	0.01865
375 K, 183.32 kPa	0.01866
375 K, 219.98 kPa	0.01868
375 K, 258.3 kPa	0.01869
375 K, 282.8 kPa	0.0187
375 K, 308.36 kPa	0.01871
375 K, 342.15 kPa	0.01871
375 K, 371.36 kPa	0.01872
375 K, 403.52 kPa	0.01873
375 K, 435.36 kPa	0.01874
375 K, 464.82 kPa	0.01875
375 K, 499.73 kPa	0.01876
375 K, 539.14 kPa	0.01878
375 K, 563.93 kPa	0.01878
375 K, 612.98 kPa	0.0188
375 K, 661.4 kPa	0.01882
375 K, 695.12 kPa	0.01884
375 K, 746.7 kPa	0.01886
375 K, 805.08 kPa	0.01888
375 K, 855.26 kPa	0.0189
375 K, 917.96 kPa	0.01894
375 K, 999.57 kPa	0.01897
375 K, 1067.6 kPa	0.01901
375 K, 1146.8 kPa	0.01905
375 K, 1211.3 kPa	0.01909
375 K, 1302.5 kPa	0.01914
375 K, 1385 kPa	0.01919
375 K, 1460.9 kPa	0.01924
375 K, 1534.4 kPa	0.01928
375 K, 1588.3 kPa	0.01932
375 K, 1723.3 kPa	0.01941
375 K, 1809.5 kPa	0.01948
375 K, 1885.1 kPa	0.01954
375 K, 1966.6 kPa	0.01959
375 K, 2043 kPa	0.01966
375 K, 2300.6 kPa	0.0199
375 K, 2399.3 kPa	0.01998
375 K, 2484.3 kPa	0.02006
375 K, 2587.3 kPa	0.02019
375 K, 2879.2 kPa	0.02051
375 K, 3052.5 kPa	0.02072
375 K, 3214.1 kPa	0.02095
375 K, 3418.4 kPa	0.02122
375 K, 3699.7 kPa	0.02167
375 K, 3960.7 kPa	0.02214
375 K, 4136.6 kPa	0.02249
375 K, 4384.3 kPa	0.02299
375 K, 4599 kPa	0.02348
375 K, 4821 kPa	0.02401
375 K, 5057 kPa	0.02467
375 K, 5280.9 kPa	0.02535
375 K, 5535.4 kPa	0.02617
375 K, 5778.6 kPa	0.02706
375 K, 6000.4 kPa	0.02791
375 K, 6326.2 kPa	0.02939
375 K, 6677.7 kPa	0.03112
375 K, 6887.6 kPa	0.03224
375 K, 7092.9 kPa	0.03343
375 K, 7293.5 kPa	0.03466
375 K, 7524.4 kPa	0.03612
375 K, 7762.9 kPa	0.0377
375 K, 7973.1 kPa	0.03919
375 K, 8202 kPa	0.04079
375 K, 8452.7 kPa	0.04259
375 K, 8711.3 kPa	0.04448
375 K, 8972.9 kPa	0.04632
375 K, 9257.7 kPa	0.04836
375 K, 9573.7 kPa	0.05065
375 K, 9868.9 kPa	0.05275
375 K, 10221 kPa	0.05519
375 K, 10547 kPa	0.05738
